In brackets after ≈: the same amount, converted by molar mass. Where a SMILES comes first, the peptide text is derived from it. Bridges are numbered along the chain shown (N, C = ends).
Key:
[1] = system: S. aureus (Sa, ATCC 9144); assay: microbe, parasite or virus in culture; format: cell-based, Staphylococcus aureus; details: ATCC 9144, 24 h
How it was run: (§1)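 Cultures grown in Mueller–Hinton broth were adjusted by OD600 to 2.5–3 × 10^4 CFU/mL and mixed with two-fold peptide dilutions from 256 to 1 µg/mL. Plates were incubated at 35 °C with OD595 monitored every hour for 24 h.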

[2] = system: E. coli (Ec, ATCC 25922); assay: microbe, parasite or virus in culture; format: cell-based, Escherichia coli; details: ATCC 25922, 24 h
How it was run: as §1

[3] = system: S. epidermidis RP62A (Se, ATCC 35984); assay: microbe, parasite or virus in culture; format: cell-based, Staphylococcus epidermidis; details: ATCC 35984, 24 h
How it was run: as §1

[4] = system: all bacterial strains; assay: Antibacterial MIC assay, all bacterial strains together (range or geometric mean); format: cell-based; details: for GM (geometric mean of the MIC values against all bacterial strains): Table 1, six bacterial strains; for GM of MIC Tot. bact.: Table S3, all bacterial test strains, MIC >256 set to 256
How it was run: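 Broth microdilution in Mueller–Hinton broth against B. subtilis, C. glutamicum, S. aureus, S. epidermidis RP62A, E. coli and P. aeruginosa; inoculum 2.5–3 × 10^4 CFU/mL, 35 °C, OD595 read hourly for 24 h. MIC: lowest peptide concentration giving OD below 10% of growth control; geometric mean across strains, triplicate.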

[5] = system: Gram-negative bacterial strains (E. coli and P. aeruginosa); assay: Antibacterial MIC assay, Gram-negative strains together (range or geometric mean); format: cell-based; details: Table S3; MIC >256 set to 256
How it was run: as §1

[6] = system: P. aeruginosa (Pa, ATCC 27853); assay: microbe, parasite or virus in culture; format: cell-based, Pseudomonas aeruginosa; details: ATCC 27853, 24 h
How it was run: as §1

[7] = system: human red blood cells (RBC); assay: Haemolytic activity assay; format: cell-based; details: for Selectivity index (SI) G- / Selectivity index (SI) G+ / Selectivity index (SI) Fungi: Table S3, highest tested concentration used where EC50 above it; for Selectivity index (SI) G-: EC50/GM of Gram-negative strains; for Selectivity index (SI) G+: EC50/GM of Gram-positive strains; for Selectivity index (SI) Fungi: EC50/GM of fungi; for SI (selectivity index = EC50/GM): haemolytic EC50 over GM of MIC against all bacterial strains, Table 1; for RBC Tox. (EC50), haemolytic activity: human RBC, 1 h, 37 °C, concentration giving 50% haemolysis
How it was run: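 Washed human erythrocytes (1% hematocrit final) incubated 1 h at 37 °C with agitation with lipopeptides at 500–3.9 μM in PBS (≤1% DMSO), duplicates. Haemoglobin release read at 545 nm relative to 0.1% Triton X-100; EC50 is 50% haemolysis, averaged from three experiments.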

[8] = system: E. coli NR698 (outer membrane permeable mutant, imp4213); assay: microbe, parasite or virus in culture; details: MC4100 NR698 imp4213, deficient outer membrane
How it was run: (§2)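 Broth microdilution in Mueller–Hinton medium, 2.5–3 × 10^4 CFU/mL inoculum, two-fold peptide dilutions from 256 to 1 µg/mL, 35 °C with OD595 read hourly for 24 h. MIC is the lowest concentration giving OD below 10% of the untreated growth control; run in triplicate.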

[9] = system: E. coli MC4100 (wild type, WT); assay: microbe, parasite or virus in culture; details: wild type
How it was run: as §2

[10] = system: Rhodotorula sp. (Rh); assay: microbe, parasite or virus in culture; format: cell-based; details: 48 h
How it was run: (§3)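 Overnight cultures in potato dextrose broth with 2% glucose at 25–30 °C were diluted to approx. 4 × 10^5 spores/mL and mixed 1:1 with two-fold peptide dilutions plated at 256 to 1 µg/mL. After 48 h at room temperature, OD600 was read. MIC was the lowest concentration giving OD below 10% of the growth control, in triplicate.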

[11] = system: C. albicans (Ca, ATCC 10231); assay: microbe, parasite or virus in culture; format: cell-based, Candida albicans; details: ATCC 10231, 48 h
How it was run: as §3

[12] = system: Gram-positive bacterial strains; details: for GM of MIC G+: Table S3, MIC >256 set to 256
How it was run: as §1

[13] = system: C. glutamicum (Cg, ATCC 13032); assay: microbe, parasite or virus in culture; format: cell-based, Corynebacterium glutamicum; details: ATCC 13032, 24 h
How it was run: as §1

[14] = system: B. subtilis (Bs, ATCC 23857); assay: microbe, parasite or virus in culture; format: cell-based, Bacillus subtilis; details: ATCC 23857, 24 h
How it was run: as §1

[15] = system: fungi (A. pullulans, C. albicans, Rhodotorula sp.); assay: Antifungal MIC assay, all fungi together (range or geometric mean); format: cell-based; details: Table S3; MIC >128 set to 128
How it was run: as §3

[16] = system: A. pullulans (Ap); assay: microbe, parasite or virus in culture; format: cell-based, Aurobasidium pollulans; details: 48 h
How it was run: as §3

SMILES	Antimicrobial Activity (MIC) Gram + Sa [1]	Antimicrobial Activity (MIC) Gram − Ec [2]	Antimicrobial Activity (MIC) Gram + Se [3]	GM (geometric mean of the MIC values against all bacterial strains) [4]	GM of MIC Tot. bact. [4]	GM of MIC G- [5]	Antimicrobial Activity (MIC) Gram − Pa [6]	Selectivity index (SI) G- [7]	Selectivity index (SI) G+ [7]	Selectivity index (SI) Fungi [7]	SI (selectivity index = EC50/GM) [7]	MIC E. coli NR698 (mutant) [8]	MIC E. coli MC4100 (WT) [9]	Antimicrobial Activity (MIC) Fungi Rh [10]	Antimicrobial Activity (MIC) Fungi Ca [11]	GM of MIC G+ [12]	Antimicrobial Activity (MIC) Gram + Cg [13]	Antimicrobial Activity (MIC) Gram + Bs [14]	GM of MIC Fungi [15]	Antimicrobial Activity (MIC) Fungi Ap [16]	also measured
CC(C)C[C@H](NC(=O)[C@H](CCCCN)NC(=O)[C@@H]1CSSC[C@H](N)C(=O)NCC(=O)N[C@@H](CCCCN)C(=O)N[C@@H](CCCCN)C(=O)N[C@@H](Cc2c[nH]c3ccccc23)C(=O)NCC(=O)N[C@@H](Cc2c[nH]c3ccccc23)C(=O)N[C@@H](Cc2c[nH]c3ccccc23)C(=O)N[C@@H](CCCCN)C(=O)N1)C(N)=O [cTurg-3] (H-CGKKWGWWKCKL-NH2; disulfide 1-10; N-terminus assumed)	32 µg/mL	32 µg/mL	16 µg/mL	18 µg/mL	18 µg/mL	64 µg/mL	128 µg/mL	13	89	27	47	8 µg/mL (≈ 5.26 µM)	16 µg/mL (≈ 10.5 µM)	32 µg/mL	32 µg/mL	10 µg/mL	4 µg/mL	4 µg/mL	32 µg/mL	32 µg/mL	RBC Tox. (EC50), haemolytic activity [7]: 849 µg/mL
CC(C)C[C@H](NC(=O)[C@H](CCCCN)NC(=O)[C@@H]1CSSC[C@H](N)C(=O)NCC(=O)N[C@@H](CCCCN)C(=O)N[C@@H](CCCCN)C(=O)N2CCC[C@H]2C(=O)N[C@@H](Cc2c[nH]c3ccccc23)C(=O)N[C@@H](Cc2c[nH]c3ccccc23)C(=O)N[C@@H](Cc2c[nH]c3ccccc23)C(=O)N[C@@H](CCCCN)C(=O)N1)C(N)=O [cTurg-4] (H-CGKKPWWWKCKL-NH2; disulfide 1-10; N-terminus assumed)	64 µg/mL	64 µg/mL	32 µg/mL	32 µg/mL	32 µg/mL	128 µg/mL	256 µg/mL	> 8	> 67	> 26	>33	8 µg/mL (≈ 5.13 µM)	16 µg/mL (≈ 10.3 µM)	32 µg/mL	64 µg/mL	16 µg/mL	4 µg/mL	8 µg/mL	40 µg/mL	32 µg/mL	
CC(C)C[C@H](NC(=O)[C@H](CCCNC(=N)N)NC(=O)[C@@H]1CSSC[C@H](N)C(=O)NCC(=O)N[C@@H](CCCNC(=N)N)C(=O)N[C@@H](CCCNC(=N)N)C(=O)N[C@@H](Cc2c[nH]c3ccccc23)C(=O)N[C@@H](Cc2c[nH]c3ccccc23)C(=O)NCC(=O)N[C@@H](Cc2c[nH]c3ccccc23)C(=O)N[C@@H](CCCNC(=N)N)C(=O)N1)C(N)=O [cTurg-5] (H-CGRRWWGWRCRL-NH2; disulfide 1-10; N-terminus assumed)	16 µg/mL	8 µg/mL	8 µg/mL	9 µg/mL	9 µg/mL	11 µg/mL	16 µg/mL	> 97	> 138	> 34	>123	8 µg/mL (≈ 4.9 µM)	8 µg/mL (≈ 4.9 µM)	32 µg/mL	32 µg/mL	8 µg/mL	4 µg/mL	8 µg/mL	32 µg/mL	32 µg/mL	RBC Tox. (EC50), haemolytic activity [7]: >1101 µg/mL
CC(C)C[C@H](NC(=O)[C@H](CCCNC(=N)N)NC(=O)[C@@H]1CSSC[C@H](N)C(=O)NCC(=O)N[C@@H](CCCNC(=N)N)C(=O)N[C@@H](CCCNC(=N)N)C(=O)N[C@@H](Cc2c[nH]c3ccccc23)C(=O)NCC(=O)N[C@@H](Cc2c[nH]c3ccccc23)C(=O)N[C@@H](Cc2c[nH]c3ccccc23)C(=O)N[C@@H](CCCNC(=N)N)C(=O)N1)C(N)=O [cTurg-6] (H-CGRRWGWWRCRL-NH2; disulfide 1-10; N-terminus assumed)	16 µg/mL	8 µg/mL	8 µg/mL	8 µg/mL	8 µg/mL	11 µg/mL	16 µg/mL	> 97	> 164	> 34		8 µg/mL (≈ 4.9 µM)	8 µg/mL (≈ 4.9 µM)	32 µg/mL	32 µg/mL	7 µg/mL	4 µg/mL	4 µg/mL	32 µg/mL	32 µg/mL	RBC Tox. (EC50), haemolytic activity [7]: > 1045 µg/mL; MIC against the Gram-positive bacterial strains ([12]; 2 h): 4 to 16 µg/mL
CC(C)C[C@H](NC(=O)[C@H](CCCNC(=N)N)NC(=O)[C@@H]1CSSC[C@H](N)C(=O)NCC(=O)N[C@@H](CCCNC(=N)N)C(=O)N[C@@H](CCCNC(=N)N)C(=O)N2CCC[C@H]2C(=O)N[C@@H](Cc2c[nH]c3ccccc23)C(=O)N[C@@H](Cc2c[nH]c3ccccc23)C(=O)N[C@@H](Cc2c[nH]c3ccccc23)C(=O)N[C@@H](CCCNC(=N)N)C(=O)N1)C(N)=O [cTurg-7] (H-CGRRPWWWRCRL-NH2; disulfide 1-10; N-terminus assumed)	16 µg/mL	16 µg/mL	8 µg/mL	10 µg/mL	10 µg/mL	23 µg/mL	32 µg/mL	9	29	6	20	8 µg/mL (≈ 4.78 µM)	8 µg/mL (≈ 4.78 µM)	32 µg/mL	32 µg/mL	7 µg/mL	4 µg/mL	4 µg/mL	32 µg/mL	32 µg/mL	RBC Tox. (EC50), haemolytic activity [7]: 197 µg/mL
